Values quoted from earlier work in patent US20080045604A1, “COMPOSITION AND METHOD FOR FACILITATING THE HEALING OF NON-HEALING AND SLOW-HEALING WOUNDS AND ULCERATIONS” (priority 2004, published 2008).

Assays:
Lemma minor = settings: Fitoterapia 2005
[1] = system: pathogenic molds and dermatophytes; settings: reported medicinal properties
Neisseria gonorrhoeae = settings: Biological Chemistry 2005

COc1cc(/C=C/C(=O)CC(=O)/C=C/c2ccc(O)c(OC)c2)ccc1O [Curcumin, (1E,6E)-1,7-bis(4-hydroxy-3-methoxyphenyl)-1,6-heptadiene-3,5-dione]
phytotoxic against Lemma minor (Lemma minor): 100%
antifungal activity / inhibition of pathogenic molds and dermatophytes [1]: no antifungal activity
adherence of bacteria to cells in infection (Neisseria gonorrhoeae): abolished the adherence of bacteria to cells
